In US8299048B2, “Hexahydrocyclopentyl[f]indazole sulfonamides and derivatives thereof as selective glucocorticoid receptor modulators” (Merck Sharp & Dohme Corp., priority 2008, dated 2012):
pKi: −log10 of the molar value.

Molecular target: T1, glucocorticoid receptor (Homo sapiens, UniProt P04150)
T1 construct: endogenous in cells
T1 sequence (P04150 1-777): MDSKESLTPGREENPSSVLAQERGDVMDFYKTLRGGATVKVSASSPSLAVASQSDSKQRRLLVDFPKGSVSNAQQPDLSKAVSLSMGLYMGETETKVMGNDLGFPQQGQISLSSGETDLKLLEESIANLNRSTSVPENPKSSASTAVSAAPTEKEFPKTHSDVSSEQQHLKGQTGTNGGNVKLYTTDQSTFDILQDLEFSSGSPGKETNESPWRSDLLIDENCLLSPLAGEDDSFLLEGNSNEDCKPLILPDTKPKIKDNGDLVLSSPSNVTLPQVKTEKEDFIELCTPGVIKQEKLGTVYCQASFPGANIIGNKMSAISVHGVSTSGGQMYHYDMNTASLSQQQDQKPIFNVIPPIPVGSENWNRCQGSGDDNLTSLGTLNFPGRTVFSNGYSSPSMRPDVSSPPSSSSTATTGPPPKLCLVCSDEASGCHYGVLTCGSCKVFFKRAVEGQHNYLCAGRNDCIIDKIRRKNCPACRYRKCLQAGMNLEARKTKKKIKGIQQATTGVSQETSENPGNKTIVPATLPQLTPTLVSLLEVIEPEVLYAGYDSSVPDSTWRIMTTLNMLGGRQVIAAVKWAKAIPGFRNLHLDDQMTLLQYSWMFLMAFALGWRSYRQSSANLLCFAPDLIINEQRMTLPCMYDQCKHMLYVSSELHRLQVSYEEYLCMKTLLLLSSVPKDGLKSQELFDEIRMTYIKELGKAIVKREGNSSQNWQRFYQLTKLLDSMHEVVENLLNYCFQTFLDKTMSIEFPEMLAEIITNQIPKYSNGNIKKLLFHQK
Assay: Ligand binding assay (GR BIND)
Procedure: • Materials: • Binding Buffer: TEGM (10 mM Tris-HCl, 1 mM EDTA, 10% glycerol, 1 mM beta-mecaptoethanol, 10 mM Sodium Molybdate, pH 7.2) • 50% HAP Slurry: Calbiochem Hydroxylapatite, Fast Flow, in 10 mM Tris, pH 8.0 and 1 mM EDTA. • Wash Buffer: 40 mM Tris, pH7.5, 100 mM KCl, 1 mM EDTA and 1 mM EGTA.
Phenol red-free Trypsin-EDTA is diluted in the same PBS1:10. The cell layers are rinsed with 1× Trypsin, extra Trypsin is poured out, and the cell layers are incubated at 37° C. for ˜2 min. The flask is tapped and checked for signs of cell detachment. Once the cells begin to slide off the flask, the complete media is added. The cells are counted at this point, then diluted to the appropriate concentration and split into flasks or dishes for further culturing (Usually 1:3 to 1:6 dilution).
When the cells are 70 to 85% confluent, they are detached as described above, and collected by centrifuging at 1000 g for 10 minutes at 4° C. The cell pellet is washed twice with TEGM (10 mM Tris-HCl, 1 mM EDTA, 10% glycerol, 1 mM beta-mercaptoethanol, 10 mM Sodium Molybdate, pH 7.2). After the final wash, the cells are resuspended in TEGM at a concentration of 10^7 cells/mL. The cell suspension is snap frozen in liquid nitrogen or ethanol/dry ice bath and transferred to −80° C. freezer on dry ice. Before setting up the binding assay, the frozen samples are left on ice-water to just thaw (˜1 hr). Then the samples are centrifuged at 12,500 g to 20,000 g for 30 min at 4° C. The supernatant is used to set-up assay right away. If using 50 μL of supernatant, the test compound can be prepared in 50 μL of the TEGM buffer.
1×TEGM buffer is prepared, and the isotope-containing assay mixture is prepared in the following order: EtOH (2% final concentration in reaction), 3H-DEX (Amersham Biosciences) and 1×TEGM. [e.g. For 100 samples, 200 μL (100×2) of EtOH+4.25 μL of 1:10 ^3H—Dex stock+2300 μL (100×23) 1×TEGM]. The compound is serially diluted, e.g., if starting final conc. is 1 μM, and the compound is in 25 μL of solution, for duplicate samples, 75 μL of 4×1 μM solution is made and 3 μL of 100 μM is added to 72 μL of buffer, and 1:5 serial dilution.
25 μL of ^3H-DEX (6 nM) trace and 25 μL compound solution are first mixed together, followed by addition of 50 μL receptor solution. The reaction is gently mixed, spun briefly at about 200 rpm and incubated at 4° C. overnight. 100 μL of 50% HAP slurry is prepared and added to the incubated reaction which is then vortexed and incubated on ice for 5 to 10 minutes. The reaction mixture is vortexed twice more to resuspend HAP while incubating reaction. The samples in 96-well format are then washed in wash buffer using The FilterMate™ Universal Harvester plate washer (Packard). The washing process transfers HAP pellet containing ligand-bound expressed receptor to Unifilter-96 GF/B filter plate (Packard). The HAP pellet on the filter plate is incubated with 50 μL of MICROSCINT (Packard) scintillint for 30 minutes before being counted on the TopCount microscintillation counter (Packard). […] are calculated using DEX as a reference.

SMILES	pKi
Cn1cc(S(=O)(=O)N(CC(O)c2ccccn2)C[C@H]2CCC3=Cc4c(cnn4-c4ccc(F)cc4)C[C@@]32C)c(C(F)(F)F)n1 (stereo partly drawn) [Example 157, N-{[(4αR,5S)-1-(4-fluorophenyl)-4α-methyl-1,4,4α,5,6,7-hexahydrocyclopenta[f]indazol-5-yl]methyl}-N-(2-hydroxy-2-pyridin-2-ylethyl)-1-methyl-3-(trifluoromethyl)-1H-pyrazole-4-sulfonamide]	9.10
C[C@]12Cc3cnn(-c4ccc(F)cc4)c3C=C1CC[C@@H]2CN(CCO)S(=O)(=O)c1ccccc1C(N)=O [Example 117, 2-{[{[(4αR,5S)-1-(4-fluorophenyl)-4α-methyl-1,4,4α,5,6,7-hexahydrocyclopenta[f]indazol-5-yl]methyl}(2-hydroxyethyl)amino]sulfonyl}benzamide]	8.03
Cc1noc(C)c1S(=O)(=O)N(CC1CC1)C[C@H]1CCC2=Cc3c(cnn3-c3ccc(F)cc3)C[C@@]21C [Example 11, N-(cyclopropylmethyl)-N-{[(4αR,5S)-1-(4-fluorophenyl)-4α-methyl-1,4,4α,5,6,7-hexahydrocyclopenta[f]indazol-5-yl]methyl}-3,5-dimethylisoxazole-4-sulfonamide]	9.15
COc1cccc(CCN(C[C@H]2CCC3=Cc4c(cnn4-c4ccc(F)cc4)C[C@@]32C)S(=O)(=O)CC(F)(F)F)c1 [Example 126, 2,2,2-trifluoro-N-{[(4αR,5S)-1-(4-fluorophenyl)-4α-methyl-1,4,4α,5,6,7-hexahydrocyclopenta[f]indazol-5-yl]methyl}-N-[2-(3-methoxyphenyl)ethyl]ethanesulfonamide]	9.05
C[C@]12Cc3cnn(-c4ccc(F)cc4)c3C=C1CC[C@@H]2CN(CC=O)S(=O)(=O)c1ccccc1F [Example 158, 2-fluoro-N-{[(4αR,5S)-1-(4-fluorophenyl)-4α-methyl-1,4,4α,5,6,7-hexahydrocyclopenta[f]indazol-5-yl]methyl}-N-(2-oxoethyl)benzenesulfonamide]	8.38
COCCN(C[C@H]1CCC2=Cc3c(cnn3-c3ccc(F)cc3)C[C@@]21C)S(=O)(=O)CCN1C(=O)c2ccccc2C1=O [Example 118, 2-(1,3-dioxo-1,3-dihydro-2H-isoindol-2-yl)-N-{[(4αR,5S)-1-(4-fluorophenyl)-4α-methyl-1,4,4α,5,6,7-hexahydrocyclopenta[f]indazol-5-yl]methyl}-N-(2-methoxyethyl)ethanesulfonamide]	8.42
C[C@]12Cc3cnn(-c4ccc(F)cc4)c3C=C1CC[C@@H]2CN(CC(O)C(F)(F)F)S(=O)(=O)Cc1cccnc1 (stereo partly drawn) [Example 149, N-{[(4αR,5S)-1-(4-fluorophenyl)-4α-methyl-1,4,4α,5,6,7-hexahydrocyclopenta[f]indazol-5-yl]methyl}-1-pyridin-3-yl-N-(3,3,3-trifluoro-2-hydroxypropyl)methanesulfonamide]	8.74
COC(=O)c1cc(Cl)ccc1CCN(C[C@H]1CCC2=Cc3c(cnn3-c3ccc(F)cc3)C[C@@]21C)S(=O)(=O)CC(F)(F)F [Example 160, methyl 5-chloro-2-(2-{{[(4αR,5S)-1-(4-fluorophenyl)-4α-methyl-1,4,4α,5,6,7-hexahydrocyclopenta[f]indazol-5-yl]methyl}[(2,2,2-trifluoroethyl)sulfonyl]amino}ethyl)benzoate]	8.47
C[C@]12Cc3cnn(-c4ccc(F)cc4)c3C=C1CC[C@@H]2CN(CCC(N)C(F)(F)F)S(=O)(=O)CC(F)(F)F (stereo partly drawn) [Example 147, N-(3-amino-4,4,4-trifluorobutyl)-2,2,2-trifluoro-N-{[(4aR,5S)-1-(4-fluorophenyl)-4α-methyl-1,4,4α,5,6,7-hexahydrocyclopenta[f]indazol-5-yl]methyl}ethanesulfonamide]	8.49
CCCCS(=O)(=O)N(CCc1ccccc1F)C[C@H]1CCC2=Cc3c(cnn3-c3ccc(F)cc3)C[C@@]21C [Example 102, N-[2-(2-fluorophenyl)ethyl]-N-{[(4αR,5S)-1-(4-fluorophenyl)-4α-methyl-1,4,4α,5,6,7-hexahydrocyclopenta[f]indazol-5-yl]methyl}butane-1-sulfonamide]	8.59
C[C@]12Cc3cnn(-c4ccc(F)cc4)c3C=C1CC[C@@H]2CN(CC1(OS(=O)(=O)CC(F)(F)F)CC1)S(=O)(=O)CC(F)(F)F [Example 136, 1-({{[(4αR,5S)-1-(4-fluorophenyl)-4α-methyl-1,4,4α,5,6,7-hexahydrocyclopenta[f]indazol-5-yl]methyl}[(2,2,2-trifluoroethyl)sulfonyl]amino}methyl)cyclopropyl 2,2,2-trifluoroethanesulfonate]	8.60
COCCN(C[C@H]1CCC2=Cc3c(cnn3-c3ccc(F)cc3)C[C@@]21C)S(=O)(=O)CC(F)(F)F [Example 97, 2,2,2-trifluoro-N-{[(4αR,5S)-1-(4-fluorophenyl)-4α-methyl-1,4,4α,5,6,7-hexahydrocyclopenta[f]indazol-5-yl]methyl}-N-(2-methoxyethyl)ethanesulfonamide]	9.52
C[C@]12Cc3cnn(-c4ccccc4)c3C=C1CC[C@@H]2CN(CCc1ccccc1F)S(=O)(=O)CC(F)(F)F [Example 137, 2,2,2-trifluoro-N-[2-(2-fluorophenyl)ethyl]-N-{[(4αR,5S)-4α-methyl-1-phenyl-1,4,4α,5,6,7-hexahydrocyclopenta[f]indazol-5-yl]methyl}ethanesulfonamide]	9.05
C[C@]12Cc3cnn(-c4ccc(F)cc4)c3C=C1CC[C@@H]2CN(CCc1ccccc1F)S(=O)(=O)Cc1cccnc1 [Example 124, N-[2-(2-fluorophenyl)ethyl]-N-{[(4αR,5S)-1-(4-fluorophenyl)-4α-methyl-1,4,4α,5,6,7-hexahydrocyclopenta[f]indazol-5-yl]methyl}-1-pyridin-3-ylmethanesulfonamide]	9.15
COC(=O)c1ccccc1CS(=O)(=O)N(CC(O)C(F)(F)F)C[C@H]1CCC2=Cc3c(cnn3-c3ccc(F)cc3)C[C@@]21C (stereo partly drawn) [Example 162, methyl 2-({[{[(4αR,5S)-1-(4-fluorophenyl)-4α-methyl-1,4,4α,5,6,7-hexahydrocyclopenta[f]indazol-5-yl]methyl}(3,3,3-trifluoro-2-hydroxypropyl)amino]sulfonyl}methyl)benzoate]	9.30
Cc1nn(C)c(Cl)c1S(=O)(=O)N(CC1CC1)C[C@H]1CCC2=Cc3c(cnn3-c3ccc(F)cc3)C[C@@]21C [Example 7]	9.40
COc1ccccc1CCN(C[C@H]1CCC2=Cc3c(cnn3-c3ccc(F)cc3)C[C@@]21C)S(=O)(=O)Cc1cccc(C(F)(F)F)c1 [Example 119, N-{[(4αR,5S)-1-(4-fluorophenyl)-4α-methyl-1,4,4α,5,6,7-hexahydrocyclopenta[f]indazol-5-yl]methyl}-N-[2-(2-methoxyphenyl)ethyl]-1-[3-(trifluoromethyl)phenyl]methanesulfonamide]	8.64
